Data: patent US20250040548A1, “Herbicidal compositions comprising saflufenacil” (BASF SF, priority 2023, published 2025)

How the values were obtained:
KCHSC = assay: Post-emergence application in greenhouse trials; format: in vivo, Kochia scoparia; conditions: growth stage 33, 1% MSO
Protocol: (§1) In the examples below, using the method of S. R. Colby (1967) “Calculating synergistic and antagonistic responses of herbicide combinations”, Weeds 15, p. 22ff., the value E, which is expected if the activity of the individual active compounds is only additive, was calculated.
(§2) [formula] • where • X=percent activity using active herbicide A at an application rate a; • Y=percent activity using active saflufenacil at an application rate b; • E=expected activity (in %) by A+B at application rates a+b.
(§3) If the value found experimentally is higher than the value E calculated according to Colby, a synergistic effect is present.
(§4) The culture containers used were plastic pots containing loamy sand with approximately 3.0% of humus as substrate. The seeds of the test plants were sown separately for each species.
(§5) For the post-emergence treatment, the test plants were grown to a plant height of from 3 to 15 cm, depending on the plant habit, and only then treated with the active compounds which had been suspended or emulsified in water. To this end, the test plants were either sown directly, and grown in the same containers, or they were first grown separately as seedlings and transplanted into the test containers a few days prior to treatment.
(§6) Depending on the species, the plants were kept at 10-25° C. and 20-35° C., respectively.
(§7) The test period extended over 2 to 4 weeks. During this time, the plants were tended and their response to the individual treatments was evaluated.
(§8) Evaluation was carried out using a scale from 0 to 100. 100 means no emergence of the plants, or complete destruction of at least the above-ground parts, and 0 means no damage or normal course of growth. A good herbicidal activity is given at values of at least 70, and very good herbicidal activity is given at values of at least 85.
(§9) Unless indicated otherwise, herbicide A and saflufenacil were formulated (50 g/I) and applied with addition of 1% MSO (methylated seed oil) as adjuvant. In the greenhouse trials, the solvent used was water (200 I/ha).

ECHCG [1] = assay: Post-emergence application in greenhouse trials; format: in vivo, Echinocloa crus-galli; conditions: B-1 3.12 g ai/ha, growth stage 13, saflufenacil as commercial 342 g/l SC formulation
Protocol: as §1, §2, §3, §4, §5, §6, §7, §8, §9

CHEAL = assay: Post-emergence application in greenhouse trials; format: in vivo, Chenopodium album; conditions: B-1 3.12 g ai/ha, 21 DAT, growth stage 51, saflufenacil as commercial 342 g/l SC formulation
Protocol: as §1, §2, §3, §4
as §5, with “treatment. […]” for “treatment.”
(§10) The test period extended over 2 to 4 weeks. During this time, the plants were tended and their response to the individual treatments was evaluated. […]

ELEIN [2] = assay: Post-emergence application in greenhouse trials; format: in vivo, Eleusine indica; conditions: B-1 3.12 g ai/ha, 21 DAT, growth stage 21, saflufenacil as commercial 342 g/l SC formulation
Protocol: as §1, §2, §3, §4
as §5, with “treatment. […]” for “treatment.”
as §10

AVEFA = assay: Post-emergence application in field trials (Examples 2 and 3); format: in vivo, Avena fatua; conditions: 1% v/v MSO
Protocol: as §1, §2, §3
(§11) On field test sites, natural weed infestation or seeded weeds were treated post-emergence of the weeds.
(§12) For the post emergence treatment, the weedy plants were treated as indicated below. The herbicidal compositions were, together with the adjuvant(s) as indicated, suspended or emulsified in water (200 l/ha unless indicated otherwise) as distribution medium and sprayed with commercial flat fan nozzles.
(§13) In the following experiments, the herbicidal activity for the individual herbicidal compositions (solo and mixture applications) was assessed the indicated days after treatment (DAT). The assessments for the damage on undesired weeds caused by the composition was carried out using a scale from 0 to 100%, compared to the untreated control plants. Here, 0 means no damage and 100 means complete destruction of the plants.
as §12, with “I/ha” for “l/ha”

BIDPI = assay: as above; format: in vivo, Bidens pilosa; conditions: B-1 25 g ai/ha, 21 DAT, growth stage 12-16, height 5-10 cm, 0.5% MSO
Protocol: as §1, §2, §3, §11, §12
as §13, with “Here, 0 means no damage and 100 means complete destruction of the plants.” left out

COMBE = assay: as above; format: in vivo, Commelina benghalensis; conditions: B-1 25 g ai/ha, 21 DAT, growth stage 11-14, height 2-10 cm, 0.5% MSO
Protocol: as §1, §2, §3, §11, §12
as §13, with “Here, 0 means no damage and 100 means complete destruction of the plants.” left out

CYPES = assay: as above; format: in vivo, Cyperus esculentus; conditions: B-1 12.5 g ai/ha, 21 DAT, height 15-23 cm, 140 l/ha water, 1% MSO + 2.5% ammoniumsulfate
Protocol: as §1, §2, §3, §11, §12
as §13, with “Here, 0 means no damage and 100 means complete destruction of the plants.” left out

DIGSA = assay: as above; format: in vivo, Digitaria sanguinales
Protocol: as §1, §2, §3, §11, §12, §13
as §12, with “I/ha” for “l/ha”

ECHCG [3] = assay: as above; format: in vivo, Echinocloa crus-galli
Protocol: as §1, §2, §3, §11, §12, §13
as §12, with “I/ha” for “l/ha”

ELEIN [4] = assay: as above; format: in vivo, Eleusine indica
Protocol: as §1, §2, §3, §11, §12, §13
as §12, with “I/ha” for “l/ha”

ERICA = assay: as above; format: in vivo, Erigeron canadensis; conditions: 21 DAT
Protocol: as §1, §2, §3, §11, §12, §13
as §12, with “I/ha” for “l/ha”

SETVI = assay: as above; format: in vivo, Setaria viridis
Protocol: as §1, §2, §3, §11, §12, §13
as §12, with “I/ha” for “l/ha”

## CC(C)N(C)S(=O)(=O)NC(=O)c1cc(-n2c(=O)cc(C(F)(F)F)n(C)c2=O)c(F)cc1Cl [B-1, saflufenacil]
KCHSC; B-1 0.2 g ai/ha, 6 DAT
  % Herbicidal activity: 15%
KCHSC; B-1 0.3 g ai/ha, 6 DAT
  % Herbicidal activity: 35%
KCHSC; B-1 0.8 g ai/ha, 6 DAT
  % Herbicidal activity: 60%
KCHSC; B-1 0.8 g ai/ha, 20 DAT
  % Herbicidal activity: 70%
KCHSC; B-1 0.9 g ai/ha, 6 DAT
  % Herbicidal activity: 60%
KCHSC; B-1 1 g ai/ha, 6 DAT
  % Herbicidal activity: 80%
KCHSC; B-1 1 g ai/ha, 20 DAT
  % Herbicidal activity: 80%
ECHCG [1]; 7 DAT
  % Herbicidal activity: 65%
ECHCG [1]; 21 DAT
  % Herbicidal activity: 40%
CHEAL
  % Herbicidal activity: 85%
ELEIN [2]
  % Herbicidal activity: 30%
AVEFA; AVEFA, growth stage 15-16, height 25-38 cm, B-1 solo 25 g ai/ha, 16 DAT
  % Herbicidal activity: 3%
AVEFA; B-1 18 g ai/ha, 28 DAT, growth stage 14-15, height 9-16 cm, field, 100 l/ha water
  % Herbicidal activity: 0%
AVEFA; B-1 18 g ai/ha, 29 DAT, growth stage 14-23, height 24-40 cm, field, 100 l/ha water
  % Herbicidal activity: 0%
BIDPI
  % Herbicidal activity: 5%
COMBE
  % Herbicidal activity: 5%
CYPES
  % Herbicidal activity: 25%
DIGSA; B-1 12.5 g ai/ha, 21 DAT, height 3-12 cm, 140 l/ha water, 1% MSO + 2.5% ammoniumsulfate
  % Herbicidal activity: 20%
DIGSA; B-1 25 g ai/ha, 19 DAT, growth stage 13-19, height 2.5-7.5 cm, 1% v/v MSO and 1% w/v ammoniumsulfate
  % Herbicidal activity: 23%
ECHCG [3]; B-1 12.5 g ai/ha, 14 DAT, growth stage 14-19, height 2-8 cm, field, 140 l/ha water, 1% MSO + 2.5% ammoniumsulfate
  % Herbicidal activity: 40%
ECHCG [3]; B-1 25 g ai/ha, 21 DAT, height 12.5-30 cm, field, 1% v/v MSO and 1% w/v ammoniumsulfate
  % Herbicidal activity: 23%
ECHCG [3]; ECHCG, growth stage 21-23, height 43-44 cm, B-1 solo 25 g ai/ha, 21 DAT, 1% Dash ® HC
  % Herbicidal activity: 27%
ELEIN [4]; B-1 12.5 g ai/ha, 21 DAT, height 1-15 cm, 140 l/ha water, 1% MSO + 2.5% ammoniumsulfate
  % Herbicidal activity: 19%
ELEIN [4]; B-1 25 g ai/ha, 19 DAT, growth stage 24, 0.5% MSO
  % Herbicidal activity: 0%
ELEIN [4]; B-1 25 g ai/ha, 21 DAT, height 7-10 cm, 1% v/v MSO and 1% w/v ammoniumsulfate
  % Herbicidal activity: 0%
ELEIN [4]; B-1 25 g ai/ha, 21 DAT, height 15-20 cm, 1% v/v MSO and 1% w/v ammoniumsulfate
  % Herbicidal activity: 0%
ERICA; B-1 6.25 g ai/ha, height 12.5-25 cm, field, 140 l/ha water, 1% MSO + 2.5% ammoniumsulfate
  % Herbicidal activity: 40%
ERICA; B-1 12.5 g ai/ha, height 12.5-25 cm, field, 140 l/ha water, 1% MSO + 2.5% ammoniumsulfate
  % Herbicidal activity: 73%
ERICA; ERICA, height 5-10 cm, B-1 solo 25 g ai/ha, 1% v/v MSO and 1% AMS (ammonium sulfate)
  % Herbicidal activity: 90%
SETVI; B-1 25 g ai/ha, 19 DAT, growth stage 13-19, height 2.5-10 cm, field, 1% v/v MSO and 1% w/v ammoniumsulfate
  % Herbicidal activity: 22%
SETVI; SETVI, height 50-61 cm, B-1 solo 25 g ai/ha, 42 DAT, 1% v/v MSO and 2.5% AMSOL ®
  % Herbicidal activity: 33%
